“And” between values parts separate entries of the source, which are not always exact repeats. Equal entries are not always repeated. Records with an inconclusive call do not appear.
System: BDF1 mice, s.c. Lewis lung carcinoma, T/C %
Experiment: NCI In Vivo Anticancer Drug Screen. Data for tumor model Lewis Lung Carcinoma (subcutaneous) in B6D2F1 (BDF1) mice
In short: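 First, mice carry a transplantable tumor. Next, groups receive either compound or vehicle. Finally, survival or tumor dimensions in the dosed animals are divided by the corresponding control figure.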

[1] = endpoint: median survival time, dose: 6.25 mg/kg/injection, schedule: Q01DX009 (ip), vehicle: Klucel (hydroxypropylcellulose) (HPC), higher = longer survival
[2] = endpoint: median survival time, dose: 12.5 mg/kg/injection, schedule: Q01DX009 (ip), vehicle: Klucel (hydroxypropylcellulose) (HPC), higher = longer survival
[3] = endpoint: median survival time, dose: 25.0 mg/kg/injection, schedule: Q01DX009 (ip), vehicle: Klucel (hydroxypropylcellulose) (HPC), higher = longer survival

O=NN(CCCl)C(=O)NCC1CCC(CNC(=O)N(CCCl)N=O)CC1 (stereo not drawn)
T/C (endpoint: mean tumor weight, dose: 400.0 mg/kg/injection, schedule: Q01DX001 (ip), vehicle: carboxymethylcellulose (CMC), higher = larger tumour): 50 % of control
T/C (endpoint: mean tumor weight, dose: 600.0 mg/kg/injection, schedule: Q01DX001 (ip), vehicle: carboxymethylcellulose (CMC), higher = larger tumour): 36 % of control
T/C (endpoint: median survival time, dose: 3.12 mg/kg/injection, schedule: Q01DX009 (ip), vehicle: Klucel (hydroxypropylcellulose) (HPC), higher = longer survival): 92 % of control
T/C [1]: 93 % of control
T/C [2]: 98 % of control
T/C [3]: 100 % of control

Cc1cnc(/C=N\NC(N)=S)c2cccc(N)c12
T/C [1]: 112 % of control
T/C (endpoint: median survival time, dose: 6.25 mg/kg/injection, schedule: Q01DX009 (ip), vehicle: saline with Tween-80, higher = longer survival): 106 % of control
T/C [2]: 90 % of control
T/C (endpoint: median survival time, dose: 12.5 mg/kg/injection, schedule: Q01DX009 (ip), vehicle: saline with Tween-80, higher = longer survival): 110 % of control
T/C [3]: 86 % of control
T/C (endpoint: median survival time, dose: 25.0 mg/kg/injection, schedule: Q01DX009 (ip), vehicle: saline with Tween-80, higher = longer survival): 117 % of control
T/C (endpoint: median survival time, dose: 50.0 mg/kg/injection, schedule: Q01DX009 (ip), vehicle: Klucel (hydroxypropylcellulose) (HPC), higher = longer survival): 95 % of control

CC(O)CC1CCCN1C (stereo not drawn)
T/C (endpoint: mean tumor weight, dose: 50.0 mg/kg/injection, schedule: Q01DX011 (ip), vehicle: saline, higher = larger tumour): 208 % of control
T/C (endpoint: mean tumor weight, dose: 100.0 mg/kg/injection, schedule: Q01DX011 (ip), vehicle: saline, higher = larger tumour): 103 % of control
T/C (endpoint: mean tumor weight, dose: 200.0 mg/kg/injection, schedule: Q01DX011 (ip), vehicle: saline, higher = larger tumour): 179 % of control

CCCCCC/C=C/C#CCCCCCCCC(=O)O
T/C (endpoint: median survival time, dose: 18.75 mg/kg/injection, schedule: Q01DX009 (ip), vehicle: Klucel (hydroxypropylcellulose) (HPC), higher = longer survival): 97 % of control
T/C (endpoint: median survival time, dose: 37.5 mg/kg/injection, schedule: Q01DX009 (ip), vehicle: Klucel (hydroxypropylcellulose) (HPC), higher = longer survival): 90 % of control and 91 % of control
T/C (endpoint: median survival time, dose: 75.0 mg/kg/injection, schedule: Q01DX009 (ip), vehicle: Klucel (hydroxypropylcellulose) (HPC), higher = longer survival): 102 % of control and 111 % of control

O=C(O)C(=O)O.[U]
T/C (endpoint: mean tumor weight, dose: 5.0 mg/kg/injection, schedule: Q01DX011 (ip), vehicle: carboxymethylcellulose (CMC), higher = larger tumour): 37 % of control
T/C (endpoint: mean tumor weight, dose: 10.0 mg/kg/injection, schedule: Q01DX011 (ip), vehicle: carboxymethylcellulose (CMC), higher = larger tumour): 55 % of control and 78 % of control
T/C (endpoint: mean tumor weight, dose: 10.0 mg/kg/injection, schedule: Q01DX011 (ip), vehicle: saline, higher = larger tumour): 42 % of control
T/C (endpoint: mean tumor weight, dose: 20.0 mg/kg/injection, schedule: Q01DX011 (ip), vehicle: saline, higher = larger tumour): 27 % of control
T/C (endpoint: median survival time, dose: 4.0 mg/kg/injection, schedule: Q01DX009 (ip), vehicle: Klucel (hydroxypropylcellulose) (HPC), higher = longer survival): 103 % of control
T/C (endpoint: median survival time, dose: 16.0 mg/kg/injection, schedule: Q01DX009 (ip), vehicle: Klucel (hydroxypropylcellulose) (HPC), higher = longer survival): 101 % of control

COC(=O)[C@H]1[C@H]2C[C@@H]3c4[nH]c5cc(OC)ccc5c4CCN3C[C@H]2C[C@@H](OC(=O)c2cc(OC)c(OC)c(OC)c2)[C@@H]1OC
T/C (endpoint: median survival time, dose: 0.25 mg/kg/injection, schedule: Q01DX009 (ip), vehicle: Klucel (hydroxypropylcellulose) (HPC), higher = longer survival): 91 % of control
T/C (endpoint: median survival time, dose: 0.5 mg/kg/injection, schedule: Q01DX009 (ip), vehicle: Klucel (hydroxypropylcellulose) (HPC), higher = longer survival): 97 % of control and 243 % of control
T/C (endpoint: median survival time, dose: 1.0 mg/kg/injection, schedule: Q01DX009 (ip), vehicle: Klucel (hydroxypropylcellulose) (HPC), higher = longer survival): 103 % of control
T/C (endpoint: median survival time, dose: 2.0 mg/kg/injection, schedule: Q01DX009 (ip), vehicle: Klucel (hydroxypropylcellulose) (HPC), higher = longer survival): 96 % of control and 243 % of control

COc1cc2c(cc1OC)-c1ccc3cc4c(cc3c1N(C)C2)OCO4
T/C (endpoint: median survival time, dose: 5.0 mg/kg/injection, schedule: Q01DX009 (ip), vehicle: water, higher = longer survival): 89 % of control
T/C (endpoint: median survival time, dose: 20.0 mg/kg/injection, schedule: Q01DX009 (ip), vehicle: water, higher = longer survival): 105 % of control
T/C (endpoint: median survival time, dose: 40.0 mg/kg/injection, schedule: Q01DX009 (ip), vehicle: water, higher = longer survival): 89 % of control
T/C (endpoint: median survival time, dose: 80.0 mg/kg/injection, schedule: Q01DX009 (ip), vehicle: water, higher = longer survival): 98 % of control
